According to patent publication US20250197375A1, “PYRIMIDINES AND METHODS OF THEIR USE” (Kineta, Inc., priority 2021, published 2025):

Columns and labels:
PIKfyve = PIKfyve (Homo sapiens (Human), UniProt Q9Y2I7); assay: PIKfyve EEA1 Assay (endosomal vesicle enlargement, high content imaging in U2OS cells); type: cell-based; conditions: 3 hours of treatment, activity relative to maximal APY0201 activity
Experimental: PIKfyve EEA1 Assay. Genetic or pharmacological disruption of PIKfyve activity results in enlargement of endosomal vesicles. This enlargement was utilized as a surrogate readout of PIKFyve inhibition for routine triage of PIKfyve inhibitors. U2OS cells grown in 96-well assay plates were treated with compound diluted in DMEM media containing 10% fetal bovine serum. After 3 hours of treatment, cells were fixed with paraformaldehyde, permeabilized with 0.2% Triton-X in phosphate buffered saline and stained against EEA1. During the secondary antibody staining, cells were also stained with CellMask™ Deep Red and Hoechst to detect cytoplasms and nuclei respectively. Endosomal structures were visualized using a high content imager at 40× magnification. Images were analyzed using a linear classifier algorithm integrating EEA1 spot size, intensity and texture trained on images of cells treated with the potent reference compound APY0201. Compound activity was calculated by subtracting the DMSO signal and calculating percentage activity relative to maximal APY0201 activity. IC50 values were then calculated from concentration versus percent inhibition data by logistic regression.

[1] = molecular target: full-length human PIKFYVE (Homo sapiens (Human), UniProt Q9Y2I7, L932S/Q1183K/Q995L/S1033A/S696N/T998S); assay: PIKfyve Biochemical Assay (ADP-Glo Kinase assay, GST-PIKFYVE); conditions: ADP-Glo, 1 hour at room temperature, 10 μM to 3 nM in duplicate; read-out: PIKfyve Biochemistry IC50 (μM)*
Experimental: PIKfyve Biochemical Assay. The biochemical PIKFyve inhibition assays were run by Cama Biosciences according to proprietary methodology based on the Promega ADP-Glo™ Kinase assay. […] GST-PIKFYVE was purified by using glutathione sepharose chromatography and used in an ADP-Glo™ Kinase assay (Promega). Reactions were set up by adding the test compound solution, substrate solution, ATP solution and kinase solution, each at 4× final concentrations. Reactions were prepared with assay buffer (50 mM MOPS, 1 mM DTT, pH7.2), mixed, and incubated in black 384 well polystyrene plates for 1 hour at room temperature. ADP-Glo™ reagent was then added for 40 minutes, followed by kinase detection reagent for an additional 40 minutes. The kinase activity was evaluated by detecting relative light units on a luminescence plate reader. Samples were run in duplicate from 10 μM to 3 nM. […] IC50 values were calculated from concentration versus percent inhibition curves by fitting to a four-parameter logistic curve.
The biochemical PIKFyve inhibition assays were run by Cama Biosciences according to proprietary methodology based on the Promega ADP-Glo™ Kinase assay. […] GST-PIKFYVE was purified by using glutathione sepharose chromatography and used in an ADP-Glo™ Kinase assay (Promega).
Reactions were set up by adding the test compound solution, substrate solution, ATP solution and kinase solution, each at 4× final concentrations. Reactions were prepared with assay buffer (50 mM MOPS, 1 mM DTT, pH7.2), mixed, and incubated in black 384 well polystyrene plates for 1 hour at room temperature. ADP-Glo™ reagent was then added for 40 minutes, followed by kinase detection reagent for an additional 40 minutes. The kinase activity was evaluated by detecting relative light units on a luminescence plate reader. Samples were run in duplicate from 10 uM to 3 nM. […] IC50 values were calculated from concentration vs % inhibition curves by fitting to a four-parameter logistic curve.

Sequence of full-length human PIKFYVE (Q9Y2I7 whole entry S696N/L932S/Q995L/T998S/S1033A/Q1183K): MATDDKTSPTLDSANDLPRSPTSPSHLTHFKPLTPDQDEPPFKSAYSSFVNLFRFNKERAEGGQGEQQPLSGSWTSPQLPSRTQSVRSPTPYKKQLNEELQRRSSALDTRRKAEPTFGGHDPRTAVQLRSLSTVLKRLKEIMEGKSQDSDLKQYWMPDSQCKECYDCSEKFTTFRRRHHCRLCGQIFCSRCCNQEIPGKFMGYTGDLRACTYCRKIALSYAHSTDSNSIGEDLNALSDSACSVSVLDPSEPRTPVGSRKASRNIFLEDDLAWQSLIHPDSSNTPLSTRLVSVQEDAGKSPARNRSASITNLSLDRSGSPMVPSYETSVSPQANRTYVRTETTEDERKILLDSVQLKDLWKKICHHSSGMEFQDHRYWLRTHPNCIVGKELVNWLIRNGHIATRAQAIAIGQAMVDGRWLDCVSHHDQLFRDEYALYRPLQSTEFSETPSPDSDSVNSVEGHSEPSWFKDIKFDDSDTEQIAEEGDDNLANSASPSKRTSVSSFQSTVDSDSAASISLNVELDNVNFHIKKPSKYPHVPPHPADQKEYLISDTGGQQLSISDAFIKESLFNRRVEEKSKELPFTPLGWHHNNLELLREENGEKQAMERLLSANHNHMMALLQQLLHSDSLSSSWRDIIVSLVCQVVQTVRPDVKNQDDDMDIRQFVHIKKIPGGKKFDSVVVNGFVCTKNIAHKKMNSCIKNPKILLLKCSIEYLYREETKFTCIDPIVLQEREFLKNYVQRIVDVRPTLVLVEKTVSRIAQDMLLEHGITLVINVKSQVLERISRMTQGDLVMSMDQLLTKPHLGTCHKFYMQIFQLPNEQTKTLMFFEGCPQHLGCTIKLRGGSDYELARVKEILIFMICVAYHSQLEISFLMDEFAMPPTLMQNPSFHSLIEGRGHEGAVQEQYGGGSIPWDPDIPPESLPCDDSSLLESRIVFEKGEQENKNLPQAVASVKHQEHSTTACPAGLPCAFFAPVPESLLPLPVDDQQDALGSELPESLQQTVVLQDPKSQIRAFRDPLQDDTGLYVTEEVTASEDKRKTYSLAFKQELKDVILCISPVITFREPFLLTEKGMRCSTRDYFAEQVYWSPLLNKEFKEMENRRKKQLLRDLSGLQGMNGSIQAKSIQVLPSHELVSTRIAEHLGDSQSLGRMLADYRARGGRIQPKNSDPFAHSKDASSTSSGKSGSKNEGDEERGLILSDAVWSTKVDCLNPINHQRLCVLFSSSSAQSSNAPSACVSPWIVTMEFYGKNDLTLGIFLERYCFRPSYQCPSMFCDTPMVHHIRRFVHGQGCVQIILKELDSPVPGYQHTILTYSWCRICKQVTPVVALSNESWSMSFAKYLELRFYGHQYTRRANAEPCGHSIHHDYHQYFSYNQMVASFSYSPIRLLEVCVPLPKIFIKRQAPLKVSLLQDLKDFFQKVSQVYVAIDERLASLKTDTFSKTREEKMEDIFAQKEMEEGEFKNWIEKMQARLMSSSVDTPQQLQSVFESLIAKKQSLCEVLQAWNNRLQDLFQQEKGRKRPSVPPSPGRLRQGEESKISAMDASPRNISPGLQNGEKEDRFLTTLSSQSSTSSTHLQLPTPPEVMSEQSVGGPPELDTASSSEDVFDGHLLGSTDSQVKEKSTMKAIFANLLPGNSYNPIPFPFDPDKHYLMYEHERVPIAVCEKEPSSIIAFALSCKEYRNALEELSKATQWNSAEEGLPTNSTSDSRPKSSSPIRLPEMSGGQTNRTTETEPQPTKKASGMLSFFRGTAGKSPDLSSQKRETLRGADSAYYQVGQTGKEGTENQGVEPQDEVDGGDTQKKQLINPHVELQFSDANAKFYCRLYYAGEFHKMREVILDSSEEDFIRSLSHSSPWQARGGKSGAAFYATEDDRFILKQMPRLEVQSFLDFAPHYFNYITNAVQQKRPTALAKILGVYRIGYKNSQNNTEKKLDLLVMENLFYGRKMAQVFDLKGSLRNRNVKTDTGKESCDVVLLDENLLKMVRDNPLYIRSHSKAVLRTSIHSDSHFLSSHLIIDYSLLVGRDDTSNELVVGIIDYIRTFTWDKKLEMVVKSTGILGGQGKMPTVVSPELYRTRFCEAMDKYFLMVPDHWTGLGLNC
Sequence of PIKfyve (Q9Y2I7 whole entry): as the sequence (Q9Y2I7 whole entry S696N/L932S/Q995L/T998S/S1033A/Q1183K) above, with N696S, S932L, L995Q, S998T, A1033S, K1183Q counted along it

Row | SMILES | IC50 (PIKfyve) [µM] | IC50 [1] [µM]
1 | Cn1ccc(-c2cnc3c(c2)-c2nc(N4CCOCC4)nc(Nc4ccncc4)c2OC3)n1 [Compound 40, 9-(1-methyl-1H-pyrazol-3-yl)-2-morpholino-N-(pyridin-4-yl)-6H-pyrido[3′,2′:4,5] pyrano[3,2-d]pyrimidin-4-amine] | 0.01 to 0.1 | 0.01 to 0.1
2 | COc1c(Nc2ccncc2)nc(-c2ccncc2)nc1-c1ccnc(-c2ccn(C)n2)c1 [Compound 39, 5-methoxy-6-(2-(1-methyl-1H-pyrazol-3-yl)pyridin-4-yl)-N, 2-di(pyridin-4-yl)pyrimidin-4-amine] | 0.01 to 0.1 | < 0.01
3 | COc1c(Nc2ccncc2)nc(N2CCOCC2)nc1-c1cccc(N2CCN(C)C(=O)C2)c1 [Compound 15, 4-(3-(5-methoxy-2-morpholino-6-(pyridin-4-ylamino)pyrimidin-4-yl)phenyl)-1-methylpiperazin-2-one] | 0.1 to 1 | 0.01 to 0.1
4 | COc1ccc(-c2nc(N3CCOCC3)nc(Nc3ccncc3)c2OC)cc1OC [Compound 13, 6-(3,4-dimethoxyphenyl)-5-methoxy-2-morpholino-N-(pyridin-4-yl)pyrimidin-4-amine] | 0.1 to 1 | < 0.01
5 | COc1c(Nc2ccncc2)nc(N2CCOCC2)nc1-c1cccc(C(=O)N(C)C)c1 [Compound 11, 3-(5-methoxy-2-morpholino-6-(pyridin-4-ylamino)pyrimidin-4-yl)-N,N-dimethylbenzamide] | 1 to 10 | 0.01 to 0.1
6 | COc1c(Nc2ccc(C)cc2)nc(N2CCOCC2)nc1-c1cc(-c2ccn(C)n2)cnn1 [Compound 17, 5-methoxy-6-(5-(1-methyl-1H-pyrazol-3-yl)pyridazin-3-yl)-2-morpholino-N-(p-tolyl)pyrimidin-4-amine] | 0.01 to 0.1 | < 0.01
7 | Cn1ccc(-c2ccc3c(c2)-c2nc(N4CCOCC4)nc(Nc4ccncc4)c2OC3)n1 [Compound 49, 9-(1-methyl-1H-pyrazol-3-yl)-2-morpholino-N-(pyridin-4-yl)-6H-isochromeno[4,3-d]pyrimidin-4-amine] | 0.1 to 1 | 0.01 to 0.1
8 | COc1c(Nc2ccncc2)nc(N2CCOCC2)nc1-c1cncc(-c2cccnn2)c1 [Compound 57] | 0.1 to 1 | < 0.01
9 | Cn1c(=O)c2c(Nc3ccncc3)nc(N3CCOCC3)nc2c2cc(-n3cccn3)ccc21 [Compound 65, 6-methyl-2-morpholino-9-pyrazol-1-yl-4-(4-pyridylamino)pyrimido[5,4-c]quinolin-5-one] | 1 to 10 | 0.01 to 0.1
10 | COc1c(Nc2ccncc2)nc(N2CCOCC2)nc1-c1cccc(-n2cccn2)c1 [Compound 8, 6-(3-(1H-pyrazol-1-yl)phenyl)-5-methoxy-2-morpholino-N-(pyridin-4-yl)pyrimidin-4-amine] | 0.1 to 1 | < 0.01
11 | Cn1ccc(-c2cc3c(cn2)COc2c(Nc4ccncc4)nc(N4CCOCC4)nc2-3)n1 [Compound 38, 9-(1-methyl-1H-pyrazol-3-yl)-2-morpholino-N-(pyridin-4-yl)-6H-pyrido[4′,3′:4,5]pyrano[3,2-d]pyrimidin-4-amine] | 0.1 to 1 | 0.01 to 0.1
12 | COc1cn(C)nc1-c1cccc(-c2nc(N3CCOCC3)nc(Nc3ccncc3)c2OC)c1 [Compound 47, 5-methoxy-6-(3-(4-methoxy-1-methyl-1H-pyrazol-3-yl)phenyl)-2-morpholino-N-(pyridin-4-yl)pyrimidin-4-amine] | 0.1 to 1 | 0.01 to 0.1
13 | COc1c(Nc2ccncc2)nc(N2CCOCC2)nc1-c1ccnc(-c2ccn(C)n2)c1 [Compound 14, 5-methoxy-6-(2-(1-methyl-H-pyrazol-3-yl)pyridin-4-yl)-2-morpholino-N-(pyridin-4-yl)pyrimidin-4-amine] | 0.01 to 0.1 | < 0.01
14 | COc1c(Nc2ccncc2)nc(N2CCOCC2)nc1-c1cccc(-c2ncccn2)c1 [Compound 16, 5-methoxy-2-morpholino-N-(pyridin-4-yl)-6-(3-(pyrimidin-2-yl)phenyl)pyrimidin-4-amine] | 0.01 to 0.1 | < 0.01
15 | COc1c(Nc2cccnc2)nc(N2CCOCC2)nc1-c1cncc(-c2ccn(C)n2)c1 [Compound 19, 5-methoxy-6-(5-(1-methyl-1H-pyrazol-3-yl)pyridin-3-yl)-2-morpholino-N-(pyridin-3-yl)pyrimidin-4-amine] | 0.1 to 1 | 0.01 to 0.1
16 | COc1c(Nc2ccncc2)nc(N2CCCC2=O)nc1-c1cccc(-c2ccn(C)n2)c1 [Compound 44, 1-(5-methoxy-4-(3-(1-methyl-1H-pyrazol-3-yl)phenyl)-6-(pyridin-4-ylamino)pyrimidin-2-yl)pyrrolidin-2-one] | > 10 | 1 to 10
17 | COc1cc(-c2nc(N3CCOCC3)nc(Nc3ccncc3)c2OC)cnc1OC [Compound 12, 6-(5,6-dimethoxypyridin-3-yl)-5-methoxy-2-morpholino-N-(pyridin-4-yl)pyrimidin-4-amine] | 0.1 to 1 | < 0.01
18 | COc1c(Nc2ccncc2)nc(N2CCOCC2)nc1-c1cncc(-c2ccn(C)n2)c1 [Compound 7, 5-methoxy-6-(5-(1-methyl-1H-pyrazol-3-yl)pyridin-3-yl)-2-morpholino-N-(pyridin-4-yl)pyrimidin-4-amine] | 0.01 to 0.1 | < 0.01
19 | COc1c(Nc2ccncc2)nc(N2CCC(O)CC2)nc1-c1cccc(-c2ccn(C)n2)c1 [Compound 46, 1-(5-methoxy-4-(3-(1-methyl-1H-pyrazol-3-yl)phenyl)-6-(pyridin-4-ylamino)pyrimidin-2-yl)piperidin-4-ol] | > 10 | 0.1 to 1
20 | Cn1ccc(-c2cccc(-c3nc(N4CCOCC4)nc(Nc4ccncc4)c3-c3ncco3)c2)n1 [Compound 74, 6-[3-(1-methylpyrazol-3-yl)phenyl]-2-morpholino-5-oxazol-2-yl-N-(4-pyridyl)pyrimidin-4-amine] | 0.1 to 1 | 0.01 to 0.1
21 | COc1c(Nc2ccncc2)nc(N2CCOCC2)nc1-c1cccc(-c2nn(C)cc2C)c1 [Compound 41] | 0.1 to 1 | 0.01 to 0.1
22 | COc1c(-c2ccncc2)nc(N2CCOCC2)nc1-c1cccc(-c2ccn(C)n2)c1 [Compound 30, 4-(5-methoxy-4-(3-(1-methyl-1H-pyrazol-3-yl)phenyl)-6-(pyridin-4-yl)pyrimidin-2-yl)morpholine] | 1 to 10 | 0.01 to 0.1
23 | COc1c(-c2cccc(-c3ccn(C)n3)c2)nc(N2CCOCC2)nc1C(O)c1ccncc1 (centres unmarked) [Compound 32] | 1 to 10 | 0.1 to 1
24 | OCc1c(Nc2cccnc2)nc(N2CCOCC2)nc1-c1cccc(-n2cccn2)c1 [Compound 70, [2-morpholino-4-(3-pyrazol-1-ylphenyl)-6-(3-pyridylamino)pyrimidin-6-yl]methanol] | 1 to 10 | –
25 | COc1c(NCc2cccnc2)nc(-c2ccncc2)nc1-c1cccc(-c2ccn(C)n2)c1 [Compound 62, 5-methoxy-6-(3-(1-methyl-1H-pyrazol-3-yl)phenyl)-N-(pyridin-3-ylmethyl)-2-(pyridin-4-yl)pyrimidin-4-amine] | 0.1 to 1 | < 0.01
26 | CN(C)C(=O)c1c(Nc2ccncc2)nc(N2CCOCC2)nc1-c1cccc(-c2ccn(C)n2)c1 [Compound 66] | 0.1 to 1 | –
27 | COc1c(C(=O)NC2CC2)nc(N2CCOCC2)nc1-c1cccc(-c2ccn(C)n2)c1 [Compound 6, N-cyclopropyl-4-methoxy-6-(3-(1-methyl-H-pyrazol-3-yl)phenyl)-2-morpholino pyrimidine-4-carboxamide] | 1 to 10 | 0.01 to 0.1
28 | CN(C)C(=O)c1c(Nc2ccncc2)nc(N2CCOCC2)nc1-c1cccc(-n2cccn2)c1 [Compound 33] | 0.1 to 1 | 0.01 to 0.1
29 | COc1c(Nc2ccncc2)nc(-c2ccncc2)nc1-c1cccc(-c2ccn(C)n2)c1 [Compound 53, 5-methoxy-6-(3-(1-methyl-1H-pyrazol-3-yl)phenyl)-N, 2-di(pyridin-4-yl)pyrimidin-4-amine] | 0.01 to 0.1 | –
30 | COc1c(NCc2cccnn2)nc(N2CCOCC2)nc1-c1cccc(-c2ccn(C)n2)c1 [Compound 31, 5-methoxy-6-(3-(1-methyl-1H-pyrazol-3-yl)phenyl)-2-morpholino-N-(pyridazin-3-ylmethyl)pyrimidin-4-amine] | 1 to 10 | –
